This is an account of results in PubChem BioAssay AID212 (DTP/NCI, 2004).

The experiment concerns BDF1 mice, colon carcinoma 38 sc, T/C %. Put plainly: NCI In Vivo Anticancer Drug Screen. Data for tumor model Colon Carcinoma 38 (subcutaneous) in B6D2F1 (BDF1) mice. The note with it: endpoint: median tumor weight (est.), higher = larger tumour. The procedure, abridged: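 Mice with transplanted tumors are treated with compound or vehicle. Survival or tumor size is then measured in both groups. The ratio of treated to control gives the reported figure.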

Where [1] appears, read: dose: 100.0 mg/kg/injection, schedule: Q07DX002 (ip), vehicle: Klucel (hydroxypropylcellulose) (HPC).
Setting [2] is: dose: 200.0 mg/kg/injection, schedule: Q07DX002 (ip), vehicle: Klucel (hydroxypropylcellulose) (HPC).
[3] abbreviates: dose: 25.0 mg/kg/injection, schedule: Q07DX002 (ip), vehicle: saline.
Where [4] appears, read: dose: 50.0 mg/kg/injection, schedule: Q07DX002 (ip), vehicle: saline.
[5] abbreviates: dose: 100.0 mg/kg/injection, schedule: Q07DX002 (ip), vehicle: saline.
Setting [6] is: dose: 200.0 mg/kg/injection, schedule: Q07DX002 (ip), vehicle: saline.
[7] abbreviates: dose: 50.0 mg/kg/injection, schedule: Q07DX002 (ip), vehicle: saline with Tween-80.
[8] abbreviates: dose: 100.0 mg/kg/injection, schedule: Q07DX002 (ip), vehicle: saline with Tween-80.
The mark [9] stands for this setting: dose: 200.0 mg/kg/injection, schedule: Q07DX002 (ip), vehicle: saline with Tween-80.
[10] abbreviates: dose: 400.0 mg/kg/injection, schedule: Q07DX002 (ip), vehicle: saline with Tween-80.
Setting [11] is: dose: 50.0 mg/kg/injection, schedule: Q07DX002 (ip), vehicle: Klucel (hydroxypropylcellulose) (HPC).
[12] abbreviates: dose: 400.0 mg/kg/injection, schedule: Q07DX002 (ip), vehicle: Klucel (hydroxypropylcellulose) (HPC).
The mark [13] stands for this setting: dose: 12.5 mg/kg/injection, schedule: Q07DX002 (ip), vehicle: saline.

The structures appear in SMILES notation. Several values for one entry are separate records, joined by “and”; a condition that tells them apart may be missing. Equal values may be shown once. Results filed as inconclusive are left out.

Take `COCC(O)Cn1ccnc1[N+](=O)[O-]` (stereo unspecified): the T/C runs as follows: (dose: 12.5 mg/kg/injection, schedule: Q07DX003 (ip), vehicle: water) 85 % of control; (dose: 25.0 mg/kg/injection, schedule: Q07DX003 (ip), vehicle: water) 90 % of control; (dose: 50.0 mg/kg/injection, schedule: Q07DX003 (ip), vehicle: water) 100 % of control; (dose: 100.0 mg/kg/injection, schedule: Q07DX003 (ip), vehicle: water) 118 % of control; (dose: 200.0 mg/kg/injection, schedule: Q07DX003 (ip), vehicle: water) 72 % of control; (dose: 400.0 mg/kg/injection, schedule: Q07DX003 (ip), vehicle: water) 86 % of control.

Turning to `O=C(Nc1ccc(Cl)c(Cl)c1)Nc1c(Oc2ccc(Cl)c(Cl)c2)ccc(Cl)c1S(=O)(=O)O`, the T/C reads like this: (dose: 6.25 mg/kg/injection, schedule: Q07DX002 (ip), vehicle: Klucel (hydroxypropylcellulose) (HPC)) 167 % of control; (dose: 12.5 mg/kg/injection, schedule: Q07DX002 (ip), vehicle: Klucel (hydroxypropylcellulose) (HPC)) 103 % of control; under setting [1], 119 % of control; under setting [2], 66 % of control.

Regarding `O=C1N(CC2CO2)CCN1CC1CO1` (stereo unspecified), the T/C is 39 % of control under setting [3]; 26 % of control under setting [4]; 41 % of control under setting [5]; 41 % of control under setting [6]; 29 % of control (dose: 400.0 mg/kg/injection, schedule: Q07DX002 (ip), vehicle: saline).

Regarding `CCC1=C[C@H]2CN(CCc3c([nH]c4ccccc34)[C@@](C(=O)OC)(c3cc4c(cc3OC)N(C)[C@H]3[C@@](O)(C(=O)NC)[C@H](OC(C)=O)[C@]5(CC)C=CCN6CC[C@]43[C@@H]65)C2)C1`, the T/C reads like this: (dose: 0.03 mg/kg/injection, schedule: Q07DX002 (ip), vehicle: saline) 116 % of control; (dose: 0.06 mg/kg/injection, schedule: Q07DX002 (ip), vehicle: saline) 84 % of control; (dose: 0.12 mg/kg/injection, schedule: Q07DX002 (ip), vehicle: saline) 90 % of control; (dose: 0.5 mg/kg/injection, schedule: Q07DX002 (ip), vehicle: saline) 108 % of control; (dose: 1.0 mg/kg/injection, schedule: Q07DX002 (ip), vehicle: saline) 90 % of control.

With `CCOC(=O)N1CCc2nc3ccc(Cl)cc3cc21`, the T/C by setting is: (dose: 25.0 mg/kg/injection, schedule: Q07DX002 (ip), vehicle: saline with Tween-80) 68 % of control; under setting [7], 68 % of control; under setting [8], 166 % of control; under setting [9], 79 % of control; under setting [10], 111 % of control.

With `CC(=O)Nc1cscc1NC(C)=O`, the T/C reads like this: under setting [7], 115 % of control; under setting [8], 91 % of control; under setting [9], 66 % of control; under setting [10], 93 % of control; (dose: 800.0 mg/kg/injection, schedule: Q07DX002 (ip), vehicle: saline with Tween-80) 73 % of control.

As for `O=C1N[C@H]2[C@H](CS[C@H]2CCCCC(=O)N(CCP(c2ccccc2)c2ccccc2)CCP(c2ccccc2)c2ccccc2)N1`, the T/C under setting [11] is 71 % of control; the T/C under setting [1] was 71 % of control; the T/C under setting [2] was 91 % of control; the T/C under setting [12] was 96 % of control; the T/C (dose: 800.0 mg/kg/injection, schedule: Q07DX002 (ip), vehicle: Klucel (hydroxypropylcellulose) (HPC)) is 89 % of control.

`COC1C(O)CC(OC2CC(Oc3cc4cc5c(c(O)c4c(O)c3C)C(=O)[C@@H](OC3CC(OC4CC(OC6CC(C)(O)C(OC(C)=O)C(C)O6)C(O)C(C)O4)C(O)C(C)O3)[C@H]([C@H](OC)C(=O)[C@@H](O)[C@@H](C)O)C5)OC(C)C2OC(C)=O)OC1C` (stereo partly specified): the T/C by setting is: (dose: 0.04 mg/kg/injection, schedule: Q07DX002 (ip), vehicle: Klucel (hydroxypropylcellulose) (HPC)) 109 % of control and 105 % of control; (dose: 0.08 mg/kg/injection, schedule: Q07DX002 (ip), vehicle: Klucel (hydroxypropylcellulose) (HPC)) 207 % of control and 76 % of control; (dose: 0.16 mg/kg/injection, schedule: Q07DX002 (ip), vehicle: Klucel (hydroxypropylcellulose) (HPC)) 71 % of control.

As for `C1CCC2C[N-]CCC2C1.C1CCC2C[N-]CCC2C1.C1CCC2C[N-]CCC2C1.C1CCC2C[N-]CCC2C1.[Cl][Rh][Cl]` (stereo unspecified), the T/C is, setting by setting: (dose: 1.0 mg/kg/injection, schedule: Q07DX003 (ip), vehicle: saline) 107 % of control; (dose: 2.0 mg/kg/injection, schedule: Q07DX003 (ip), vehicle: saline) 62 % of control; (dose: 4.0 mg/kg/injection, schedule: Q07DX003 (ip), vehicle: saline) 82 % of control; (dose: 8.0 mg/kg/injection, schedule: Q07DX003 (ip), vehicle: saline) 87 % of control; (dose: 16.0 mg/kg/injection, schedule: Q07DX003 (ip), vehicle: saline) 78 % of control.

For `OCCN1CCN(CCCN2c3ccccc3Sc3ccc(C(F)(F)F)cc32)CC1`, the T/C by setting is: (dose: 3.12 mg/kg/injection, schedule: Q07DX002 (ip), vehicle: saline) 115 % of control; (dose: 6.25 mg/kg/injection, schedule: Q07DX002 (ip), vehicle: saline) 91 % of control; under setting [13], 61 % of control; under setting [3], 67 % of control; under setting [4], 56 % of control.

For the compound `CC12C(=O)C=CCC1=CCC1C2CCC2(O)C(=O)OC3(C)C4CC5(C)C(COC16OC23C5C6=O)C(=O)O4` (stereo unspecified), the T/C was 112 % of control under setting [11], 86 % of control under setting [1] and 111 % of control under setting [12].

Regarding `COc1cc2cc3cc4cc(OC)c(OC)cc4c(C)[n+]3cc2cc1OC` (tested in a mixture with another compound), the T/C is 74 % of control and 94 % of control under setting [13]; 83 % of control (dose: 12.5 mg/kg/injection, schedule: Q07DX002 (ip), vehicle: suspension in saline); 85 % of control (dose: 25.0 mg/kg/injection, schedule: Q07DX002 (ip), vehicle: suspension in saline); 81 % of control and 100 % of control under setting [4]; 98 % of control (dose: 50.0 mg/kg/injection, schedule: Q07DX002 (ip), vehicle: suspension in saline); 82 % of control and 88 % of control under setting [5]. Further, the T/C runs as follows: (dose: 100.0 mg/kg/injection, schedule: Q07DX002 (ip), vehicle: suspension in saline) 116 % of control; under setting [6], 74 % of control; (dose: 200.0 mg/kg/injection, schedule: Q07DX002 (ip), vehicle: suspension in saline) 50 % of control; (dose: 400.0 mg/kg/injection, schedule: Q07DX002 (ip), vehicle: suspension in saline) 89 % of control.
